In patent publication US12252524B2, “GIP/GLP1 co-agonist compounds” (Eli Lilly and Company, priority 2018, dated 2025) one finds Ki and EC50 data, which are given here for four compounds.

Numbered stars: 1 amine (or outer) side, 2 acyl side, 3 side chain; on linkers, the order of the positions; unused ones are H or OH. Square brackets hold non-standard residues; d marks the D form. Side chains are listed from the residue outwards. Peptide text beside a SMILES is read from it. * marks the point of attachment. C20 diacid = O=C(O)CCCCCCCCCCCCCCCCCCC(=O)*; C18 diacid = O=C(O)CCCCCCCCCCCCCCCCC(=O)*; αMePhe(2-F) = C[C@](N)(Cc1ccccc1F)C(=O)O; γGlu = O=C(O)[C@H](CCC(=O)[*:2])N[*:1]; αMeY = C[C@](N)(Cc1ccc(O)cc1)C(=O)O; αMeF = C[C@](N)(Cc1ccccc1)C(=O)O; 4Pal = N[C@@H](Cc1ccncc1)C(=O)O; αMeL = CC(C)C[C@](C)(N)C(=O)O; Orn = NCCC[C@H](N)C(=O)O; AEEA = NCCOCCOCC(=O)O; Aib = CC(C)(N)C(=O)O A value given as a limit tells only on which side of the number the result lay.

The term Ki denotes a measure of affinity in units of concentration, obtained from inhibition or displacement. The EC50 is the concentration needed to bring the measured effect to its halfway point.

For one test, the target named is T1, human Gcg receptor (Homo sapiens, UniProt P47871).
T1 construct: expressed in transfected cells; crude membranes
The test can be described thus: [125I]-Glucagon binding (SPA), human Gcg receptor. Conditions: read-out: hGLcgR Ki, nM (SEM, n). As for the experimental part:
(§1) Two methods are used for the preparation of crude cell membranes.
(§2) Method 1: Frozen cell pellets are lysed on ice in hypotonic buffer containing 50 mM Tris HCl, pH 7.5, and Roche Complete™ Protease Inhibitors with EDTA. The cell suspension is disrupted using a glass Potter-Elvehjem homogenizer fitted with a Teflon® pestle for 25 strokes. The homogenate is centrifuged at 4° C. at 1100×g for 10 minutes. The supernatant is collected and stored on ice while the pellets are resuspended in homogenization buffer and rehomogenized as described above. The homogenate is centrifuged at 1100×g for 10 minutes. The second supernatant is combined with the first supernatant and centrifuged at 35000×g for 1 hour at 4° C. The resulting membrane pellet is resuspended in homogenization buffer containing protease inhibitors at approximately 1 to 3 mg/mL, quick frozen in liquid nitrogen and stored as aliquots in a−80° C. freezer until use.
(§3) Method 2: Frozen cell pellets are lysed on ice in hypotonic buffer containing 50 mM Tris HCl, pH 7.5, 1 mM MgCl2, Roche Complete™ EDTA-free Protease Inhibitors and 25 units/ml DNAse I (Invitrogen). The cell suspension is disrupted using a glass Potter-Elvehjem homogenizer fitted with a Teflon® pestle for 20 to 25 strokes. The homogenate is centrifuged at 4° C. at 1800×g for 15 minutes. The supernatant is collected and stored on ice while the pellets are resuspended in homogenization buffer (without DNAse I) and rehomogenized as described above. The homogenate is centrifuged at 1800×g for 15 minutes. The second supernatant is combined with the first supernatant and centrifuged an additional time at 1800×g for 15 minutes. The overall supernatant is then centrifuged at 25000×g for 30 minutes at 4° C. The resulting membrane pellet is resuspended in homogenization buffer (without DNAse I) containing protease inhibitors at approximately 1 to 3 mg/mL and stored as aliquots in a−80° C. freezer until use.
The human Gcg receptor binding assays are performed using a Scintillation Proximity Assay (SPA) format with wheat germ agglutinin (WGA) beads (Perkin Elmer). The binding buffer contains 25 mM 4-(2-hydroxyethyl)-1-piperazineethanesulfonic acid (HEPES), pH 7.4, 2.5 mM CaCl2, 1 mM MgCl2, 0.1% (w/v) bacitracin (Research Products), 0.003% (w/v) Polyoxyethylenesorbitan monolaurate (TWEEN©-20), and Roche Complete™ Protease Inhibitors without EDTA. […] Plates are sealed and mixed on a plate shaker (setting 6) for 1 minute and read with a PerkinElmer Trilux MicroBeta© scintillation counter after 12 hours of incubation/settling time at room temperature.
(§4) Data are analyzed using four-parameter (curve maximum, curve minimum, IC50, Hill slope) nonlinear regression routines (Genedata Screener, version 12.0.4, Genedata AG, Basal, Switzerland). […] Values for Ki are reported as the geometric mean, with error expressed as the standard error of the mean (SEM) and n is equal to the number of independent replicates (determined in assays performed on different days). […] The Ki Ratio is a rapid indication of the apparent affinity of a peptide compared to the native control peptide. […] SEM is only calculated when n=2 or greater non-qualified results exist. Means are expressed as GeoMetric means with the standard error of the mean (SEM) and the number of replicates (n) indicated in parenthesis.

Another test deals with T2, human GIP receptor (Homo sapiens, UniProt P48546).
T2 construct: expressed in transfected cells; crude membranes
T2 sequence (P48546 22-466): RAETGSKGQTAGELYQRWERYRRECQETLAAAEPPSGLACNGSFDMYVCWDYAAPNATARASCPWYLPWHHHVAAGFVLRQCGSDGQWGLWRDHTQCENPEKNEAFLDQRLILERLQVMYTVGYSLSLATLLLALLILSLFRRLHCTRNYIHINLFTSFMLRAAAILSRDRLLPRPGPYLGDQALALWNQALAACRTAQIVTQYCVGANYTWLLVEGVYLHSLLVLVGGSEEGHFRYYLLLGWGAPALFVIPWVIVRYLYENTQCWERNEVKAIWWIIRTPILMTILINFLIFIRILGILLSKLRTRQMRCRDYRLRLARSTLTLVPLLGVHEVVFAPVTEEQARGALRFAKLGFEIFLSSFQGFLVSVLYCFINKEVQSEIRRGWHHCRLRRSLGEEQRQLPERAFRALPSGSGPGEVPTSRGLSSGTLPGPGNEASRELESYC
Put plainly: [125I]-GIP binding (SPA), human GIP receptor. Conditions: read-out: hGIPR Ki, nM (SEM, n). As for the experimental part:
as §1, §2, §3
The binding buffer contains 25 mM HEPES, pH 7.4, 2.5 mM CaCl2, 1 mM MgCl2, 0.1% (w/v) bacitracin, 0.003% (w/v) TWEEN©-20, and Roche Complete™ Protease Inhibitors without EDTA. Peptides and GIP are thawed and 3 fold serially diluted in 100% DMSO (10 point concentration response curves). […] Plates are sealed and mixed on a plate shaker (setting 6) for 1 minute and read with a PerkinElmer Trilux MicroBeta© scintillation counter after 2.5 to 12 hours of incubation/settling time at room temperature.
as §4

Test [1] addresses human GLP-1 receptor (GLP-1R) (Homo sapiens, UniProt P43220). Put plainly: cAMP pharmacological functional assay in presence of casein, hGLP-1R. Type of test: cell-based. The settings on record: HEK293 cells expressing hGLP-1R, 0.1% Casein, geometric mean; read-out: hGLP1R cAMP Rel EC50 nM (SEM, n).
The target in test [2] is T3, gastric inhibitory peptide receptor (GIPR) (Homo sapiens, UniProt P48546).
T3 sequence (P48546 22-466): T2 sequence (P48546 22-466)
The test can be described thus: cAMP pharmacological functional assay in presence of casein, hGIPR. Type of test: cell-based. Conditions: HEK293 cells expressing hGIPR, 0.1% Casein, geometric mean; read-out: hGIPR cAMP Rel EC50 nM (SEM, n).

Sequence of human GLP-1 receptor (GLP-1R) (P43220 24-463): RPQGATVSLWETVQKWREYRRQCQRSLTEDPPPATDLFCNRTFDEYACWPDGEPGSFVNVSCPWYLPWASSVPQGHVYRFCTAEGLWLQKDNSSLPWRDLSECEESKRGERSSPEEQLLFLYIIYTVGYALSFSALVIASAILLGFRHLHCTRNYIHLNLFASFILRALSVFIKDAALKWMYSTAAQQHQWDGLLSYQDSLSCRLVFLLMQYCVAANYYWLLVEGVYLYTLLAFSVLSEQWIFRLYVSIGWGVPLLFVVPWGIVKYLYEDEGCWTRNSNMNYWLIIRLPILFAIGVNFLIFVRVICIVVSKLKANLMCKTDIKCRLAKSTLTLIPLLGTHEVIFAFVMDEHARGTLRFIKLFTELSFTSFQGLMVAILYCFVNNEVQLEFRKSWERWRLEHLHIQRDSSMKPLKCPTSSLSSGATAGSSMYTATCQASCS
T1 sequence (P47871 26-477): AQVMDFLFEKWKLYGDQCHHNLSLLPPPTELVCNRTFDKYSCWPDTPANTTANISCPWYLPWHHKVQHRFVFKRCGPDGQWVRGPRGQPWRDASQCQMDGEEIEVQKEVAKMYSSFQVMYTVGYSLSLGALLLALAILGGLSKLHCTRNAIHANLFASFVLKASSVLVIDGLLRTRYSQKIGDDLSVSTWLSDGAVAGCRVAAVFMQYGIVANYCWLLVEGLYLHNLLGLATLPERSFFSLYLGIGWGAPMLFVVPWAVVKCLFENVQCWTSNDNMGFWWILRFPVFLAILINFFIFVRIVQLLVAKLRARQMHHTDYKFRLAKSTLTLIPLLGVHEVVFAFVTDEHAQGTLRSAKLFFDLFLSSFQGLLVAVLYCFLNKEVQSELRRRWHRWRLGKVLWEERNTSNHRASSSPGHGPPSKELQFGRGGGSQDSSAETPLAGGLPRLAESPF

With `CC[C@H](C)[C@H](NC(=O)[C@H](CC(C)C)NC(=O)[C@H](Cc1ccc(O)cc1)NC(=O)[C@H](CCC(=O)O)NC(=O)[C@@H](NC(=O)[C@H](Cc1ccccc1)NC(=O)[C@@H](NC(=O)C(C)(C)NC(=O)[C@H](CCC(N)=O)NC(=O)[C@H](C)NC(=O)[C@H](CCCCNC(=O)COCCOCCNC(=O)COCCOCCNC(=O)CC[C@H](NC(=O)CCCCCCCCCCCCCCCCCCC(=O)O)C(=O)O)NC(=O)[C@H](CCCCN)NC(=O)[C@H](CC(=O)O)NC(=O)[C@H](CC(C)C)NC(=O)[C@](C)(CC(C)C)NC(=O)[C@@H](NC(=O)[C@H](CO)NC(=O)[C@H](Cc1ccc(O)cc1)NC(=O)[C@H](CC(=O)O)NC(=O)[C@H](CO)NC(=O)[C@@H](NC(=O)[C@](C)(Cc1ccccc1)NC(=O)[C@@H](NC(=O)CNC(=O)[C@H](CCC(=O)O)NC(=O)C(C)(C)NC(=O)[C@@H](N)Cc1ccc(O)cc1)[C@@H](C)O)[C@@H](C)O)[C@@H](C)CC)[C@@H](C)O)[C@@H](C)CC)C(=O)N[C@@H](CCC(=O)O)C(=O)NCC(=O)NCC(=O)N1CCC[C@H]1C(=O)N[C@@H](CO)C(=O)N[C@@H](CO)C(=O)NCC(=O)N[C@@H](C)C(=O)N1CCC[C@H]1C(=O)N1CCC[C@H]1C(=O)N1CCC[C@H]1C(=O)N[C@@H](CO)C(N)=O` [Example 139] (H-Y[Aib]EGT[αMeF]TSDYSI[αMeL]LDKK([AEEA-AEEA-γGlu-C20 diacid])AQ[Aib]TFIEYLIEGGPSSGAPPPS-NH2), the Ki at human Gcg receptor stood at 105 nM; at human GIP receptor it was 0.036 nM. For the same compound, the EC50 came to 0.0417 nM in test [1] and 0.037 nM in test [2].
Taken in the same sequence, the figures for `CC[C@H](C)[C@H](NC(=O)[C@H](CC(C)C)NC(=O)[C@H](Cc1ccc(O)cc1)NC(=O)[C@@H](CCC(=O)O)NC(=O)[C@@H](NC(=O)[C@H](Cc1ccccc1)NC(=O)[C@H](CCC(=O)O)NC(=O)C(C)(C)NC(=O)[C@H](CCC(N)=O)NC(=O)[C@H](C)NC(=O)[C@H](CCCCNC(=O)COCCOCCNC(=O)COCCOCCNC(=O)CC[C@H](NC(=O)CCCCCCCCCCCCCCCCC(=O)O)C(=O)O)NC(=O)[C@H](CCC(=O)O)NC(=O)[C@H](CC(=O)O)NC(=O)[C@H](CC(C)C)NC(=O)[C@](C)(CC(C)C)NC(=O)[C@@H](NC(=O)[C@H](CO)NC(=O)[C@H](Cc1ccncc1)NC(=O)[C@H](CC(=O)O)NC(=O)[C@H](CO)NC(=O)[C@@H](NC(=O)[C@](C)(Cc1ccccc1F)NC(=O)[C@@H](NC(=O)CNC(=O)[C@H](CCC(=O)O)NC(=O)C(C)(C)NC(=O)[C@@H](N)Cc1ccc(O)cc1)[C@@H](C)O)[C@@H](C)O)[C@@H](C)CC)[C@@H](C)CC)C(=O)N[C@@H](CCC(=O)O)C(=O)NCC(=O)NCC(=O)N1CCC[C@H]1C(=O)N[C@@H](CO)C(=O)N[C@@H](CO)C(=O)NCC(=O)N[C@@H](C)C(=O)N1CCC[C@H]1C(=O)N1CCC[C@H]1C(=O)N1CCC[C@H]1C(=O)N[C@@H](CO)C(N)=O` [Example 204] (H-Y[Aib]EGT[αMePhe(2-F)]TSD[4Pal]SI[αMeL]LDEK([AEEA-AEEA-γGlu-C18 diacid])AQ[Aib]EFI[dE]YLIEGGPSSGAPPPS-NH2) were above 1150 nM, 0.0704 nM, 0.0654 nM and 0.0424 nM.
With `CC[C@H](C)[C@H](NC(=O)[C@H](CC(C)C)NC(=O)[C@](C)(Cc1ccc(O)cc1)NC(=O)[C@@H](CCC(=O)O)NC(=O)[C@@H](NC(=O)[C@H](Cc1ccccc1)NC(=O)[C@H](CCC(=O)O)NC(=O)C(C)(C)NC(=O)[C@H](CCC(N)=O)NC(=O)[C@H](C)NC(=O)[C@H](CCC(N)=O)NC(=O)[C@H](CCCN)NC(=O)[C@H](CC(=O)O)NC(=O)[C@H](CC(C)C)NC(=O)[C@](C)(CC(C)C)NC(=O)[C@@H](NC(=O)[C@H](CO)NC(=O)[C@H](Cc1ccncc1)NC(=O)[C@H](CC(=O)O)NC(=O)[C@H](CO)NC(=O)[C@@H](NC(=O)[C@](C)(Cc1ccccc1F)NC(=O)[C@@H](NC(=O)CNC(=O)[C@H](CCC(=O)O)NC(=O)C(C)(C)NC(=O)[C@@H](N)Cc1ccc(O)cc1)[C@@H](C)O)[C@@H](C)O)[C@@H](C)CC)[C@@H](C)CC)C(=O)N[C@@H](CCC(=O)O)C(=O)NCC(=O)NCC(=O)N1CCC[C@H]1C(=O)N[C@@H](CO)C(=O)N[C@@H](CO)C(=O)NCC(=O)N[C@@H](C)C(=O)N1CCC[C@H]1C(=O)N1CCC[C@H]1C(=O)N1CCC[C@H]1C(=O)N[C@@H](CO)C(N)=O` [Example 285] (H-Y[Aib]EGT[αMePhe(2-F)]TSD[4Pal]SI[αMeL]LD[Orn]QAQ[Aib]EFI[dE][αMeY]LIEGGPSSGAPPPS-NH2), the EC50 came to 0.072 nM in test [1] and 0.0884 nM in test [2].
Taken in the same sequence, the figures for `CC[C@H](C)[C@H](NC(=O)[C@H](CC(C)C)NC(=O)[C@H](Cc1ccc(O)cc1)NC(=O)[C@H](CCC(=O)O)NC(=O)[C@@H](NC(=O)[C@H](Cc1ccccc1)NC(=O)[C@H](C)NC(=O)C(C)(C)NC(=O)[C@H](CCC(N)=O)NC(=O)[C@H](C)NC(=O)[C@H](CCCCNC(=O)COCCOCCNC(=O)COCCOCCNC(=O)[C@@H](N)CCCCNC(=O)CCCCCCCCCCCCCCCCCCC(=O)O)NC(=O)[C@H](CCCCN)NC(=O)[C@H](CC(=O)O)NC(=O)[C@H](CC(C)C)NC(=O)[C@H](CC(C)C)NC(=O)[C@@H](NC(=O)[C@H](CO)NC(=O)[C@H](Cc1ccc(O)cc1)NC(=O)[C@H](CC(=O)O)NC(=O)[C@H](CO)NC(=O)[C@@H](NC(=O)[C@H](Cc1ccccc1)NC(=O)[C@@H](NC(=O)CNC(=O)[C@H](CCC(=O)O)NC(=O)C(C)(C)NC(=O)[C@@H](N)Cc1ccc(O)cc1)[C@@H](C)O)[C@@H](C)O)[C@@H](C)CC)[C@@H](C)CC)C(=O)N[C@@H](CCC(=O)O)C(=O)NCC(=O)NCC(=O)N1CCC[C@H]1C(=O)N[C@@H](CO)C(=O)N[C@@H](CO)C(=O)NCC(=O)N[C@@H](C)C(=O)N1CCC[C@H]1C(=O)N1CCC[C@H]1C(=O)N1CCC[C@H]1C(=O)N[C@@H](CO)C(N)=O` [Example 113] were 0.233 nM and 0.166 nM.
